Entries after “also recorded” stand apart in the source; their conditions may differ. Where two headings read alike, the source gives them in different places.
What was measured:
LC3-II protein = LC3-II protein level in SH-SY5Y cells with or without bafilomycin A1; format: cell-based, human; conditions: bafilomycin A1 10 nM alone
Protocol: The observed increase in LC3-positive autophagosomes could result, in principle, from either an increased flux through the autophagy pathway or decreased autophagosome degradation (Pankiv, S., et al. J Biol Chem 282, 24131-24145 (2007); Kamada, Y., et al. J Cell Biol 150, 1507-1513 (2000)). […] In order to ascertain an increase in autophagic flux, cells were co-treated with LNK-754-TS and an inhibitor of autophagosome-lysosome fusion, bafilomycin A1 (10 nM). Bafilomycin treatment alone caused a 100% increase in the amount of LC3-II, consistent with the fact that it inhibits autophagosome degradation (FIG. 8c).

human α-synuclein = assay: Masliah D-line α-synuclein transgenic mouse, α-synuclein immunoreactivity and ELISA; format: in vivo; conditions: α-synuclein transgenic mice vs vehicle
Protocol: Animals and treatments: Male and female human WT alpha-synuclein over-expressing transgenic mice^32 at 6 months of age were given vehicle (10% beta-cyclodextrin) or LNK-754-TS (0.09, 0.9 and 9 mg/kg) per oral gavage twice daily for 3 months or animals at 7 months of age were given vehicle (2.5% beta-cyclodextrin) or LNK-754-TS (2 mg/kg) once every three days for 3 months. Male and female TAU transgenic mice expressing TAU441 bearing the missense mutations V337M^50 and R406W under the control of the murine Thy-1 promoter with a CB6xC57BL/6 background were 5 months old at the time when the oral treatment for three months with LNK-754-TS (0.9 and 0.09 mg/kg) as well as vehicle (2.5% beta-cyclodextrin) was started. Female human APP/PS1 (APP (London V7171)/PS1(A246E)) over-expressing transgenic mice were treated with LNK-754-TS (0.9 mg/kg) or vehicle (2.5% beta-cyclodextrin) for 2 months or 12 days.
Immunohistochemistry and quantification of stained cells: For evaluation of α-synuclein immunoreactivity (IR), 5 sagittal cryo-cut sections (10 μm slice thickness) from five different layers were used for counting of IR cells in the cortex and hippocampus. Brain sections were stained with a monoclonal human α-synuclein specific antibody (Alexis®; Cat#804-258-L001; dilution 1:5), followed by a secondary Ab Cy 2-Goat Anti-Rat (Jackson ImmunoResearch®; dilution 1:200). IR positive cells were quantified using specialized image analysis software (Image Pro Plus, version 4.5.1.29). For Tau transgenic animals, 5 μm thick coronal paraffin sections were stained with the monoclonal mouse anti-human TAU-antibodies (AT180—1:100; HT7—1:500) and visualized using an anti-mouse Cy3 secondary antibody (1:500, Jackson Laboratories®). Images were evaluated with ImageProPlus (version 6.2) image analysis software. For APP/PS1 transgenic animals sagittal hemisections (40 μm) were collected and processed for Aβ immunohistochemistry using an 6E10 antibody, Thioflavin-S staining. Primary antibodies were detected by the ABC method.
ELISA quantification of α-Synuclein in the α-Synuclein transgenic animals: Brain homogenate was centrifuged and the supernatant saved as fraction F1. The pellet was washed then resuspended and saved as fraction F2. Plates (Nunc, 464718) were coated with SYN-1 (1:1000, BD Transduction Labs, 610787). Monomeric recombinant α-synuclein was included as an internal standard. Biotinylated antibody FL-140 (1:300, Santa Cruz Biotechnology, sc-10717-B) and ExtrAvidin-Alkaline phosphatase (3:5000, Sigma, E2636) was added followed by pNPP substrate solution (Sigma, N1891). Raw absorbance (405 nm) was then normalized to the total protein concentration of each sample. In the APP/PS1 transgenic animal, brains were homogenized and the supernatant, Faction 1, was separated from the pellet. The pellets were further processed with addition of NP40 and Triton X-100. The supernatant was separated from the pellet as the insoluble membrane, Fraction 2, and was dissolved in 8M Guanidine. To quantify the amount of human Aβ-40 and Aβ-42, ELISA kits were used (The Genetics Company, Zurich, Switzerland).
In FIG. 2 is shown efficacy data for LNK-754-TS in the Masliah D-line transgenic α-synuclein mouse (an accepted model of synucleinopathies). Two trials are shown, the first (FIG. 2A) at higher doses of LNK-754-TS: 45 mg/kg and 9 mg/kg. […] The second trial (FIG. 2B) explores the low dose range for efficacy in the α-synuclein models. Here, doses start as low as 0.9 mg/kg, and extend through 9 mg/kg, all below the efficacious dose range in the mouse oncology model.
After dosing with LNK-754-TS for three months (twice daily at 0.09 mg/kg or 0.9 mg/kg), α-synuclein accumulation in the brain was analyzed by immunohistochemical (human specific α-synuclein immunoreactivity) and biochemical (α-synuclein ELISA) means. […]

GGTase [1] = target: T1, GGTase (Homo sapiens, UniProt P49354+P53609); assay: GGTase inhibitory activity, general statement; format: biochemical; conditions: selective FTase inhibitors
LC3 mRNA = LC3 mRNA (qPCR) in SH-SY5Y cells; format: cell-based, human; conditions: 100 nM, 72 hr, SH-SY5Y
Protocol: (§1) Cell culture and immunocytochemistry: SH-SY5Y cells were grown in DMEM medium supplemented with 10% FBS and 1% pen/strep at 37° C. and 5% CO2. Cells were differentiated with 10 μM retinoic acid for 48 hr, then treated with the either rapamycin (100 nM or 1 μM) or with 100 nM of either LNK-754-TS or Tipifarnib for 48-72 hr. Cells were then fixed with 4% paraformaldehyde and stained for LC3 (Novus biological, NB100-2331, dilution 1:800) followed by secondary Alexa-564 anti-Rabbit (A-11011).
(§2) Quantitative real-time PCR: Gene expression profiles were done by qPCR on series of known autophagy genes. RNA was extracted with Tri-reagent (Sigma), and cDNAs generated using iScript (Biorad). qPCR analysis was carried out in a 96 well plate using an iCycler (BioRad, Hercules, Calif.), and iQ SYBR Green Supermix (Biorad) according to the manufacturer's specifications.
Such increases in LC3 mRNA levels are associated in the literature with stimulation of macroautophagy. This supports the hypothesis that at doses as low as 1 nM in this in vitro system there is stimulation of autophagy in these cells.
(§3) Autophagy was measured in a neuroblastoma cell culture system by three distinct approaches: quantitation of autophagy-related mRNA's, immunofluorescence microscopy of autophagosomes, and biochemical detection of the microtubule-associated protein 1 light chain 3 (LC3) a key protein that is required for autophagosome formation. Differentiated human neuroblastoma cells (SH-SY5Y) were treated for 72 hr with LNK-754-TS (0.01-100 nM), Zarnestra® (also referred to herein as tipifarnib) (100 nM) or rapamycin (1 μM).

GGTase [2] = target: T1, GGTase; conditions: at 50 micromolar; cited from earlier work
FTase = FTase (Homo sapiens, UniProt P49354+P49356); conditions: End et al., Cancer Research 2001; cited from earlier work
[3] = system: LC3-positive puncta (autophagosomes); assay: LC3 immunostaining (LC3-positive puncta) in SH-SY5Y cells; format: cell-based, human; conditions: 100 nM, SH-SY5Y (FIG. 8b)
Protocol: as §1, §3

[4] = system: autophagy-related gene transcripts; assay: mRNA of autophagy-related genes (Atg1, p62) in SH-SY5Y cells; format: cell-based, human; conditions: 100 nM, SH-SY5Y (FIG. 8d)
Protocol: as §2
Rapamycin is a well-characterized autophagy stimulator that acts through inhibition of mTOR, a kinase involved in nutrient signaling and regulation of cell growth and survival.

[5] = Pharmacokinetics of Zarnestra in C57BL/6 mice, oral; format: in vivo, mouse; conditions: oral 5 mg/kg single dose; for MRT: read-out: MRT(0-[…])
Protocol: LLOQ: brain 4 ng/g; plasma 50 ng/ml.
The pharmacokinetic profiles of LNK-754-TS and Zarnestra® were analyzed using methods known in the art. The results are shown in FIGS. 13-14 and the tables below.

In the case of CO/C1=C\C(C)=C\[C@@H](C)[C@@H](O)[C@@H](C)C/C(C)=C/C=C/[C@H](OC)[C@@H]([C@@H](C)[C@@H](O)[C@H](C)[C@@]2(O)C[C@@H](O)[C@H](C)[C@@H](C(C)C)O2)OC1=O [Bafilomycin, bafilomycin A1, reference compound], the “increase in the amount of LC3-II” value (LC3-II protein) is reported as 100%.
In the case of Cn1cncc1[C@@](N)(c1ccc(Cl)cc1)c1ccc2c(c1)c(-c1cccc(Cl)c1)cc(=O)n2C [Zarnestra®, (R)-6-(Amino(4-chlorophenyl)(1-methyl-1H-imidazol-5-yl)methyl)-4-(3-chlorophenyl)-1-methyl-2(1H)-quinolinone], the “levels of α-synuclein in the hippocampus” value (human α-synuclein) is reported as “decrease levels of α-synuclein”, the α-synuclein inclusions (human α-synuclein) is reported as “fewer α-synuclein inclusions” and the GGTase inhibitory activity (GGTase [1]) is reported as “little to no GGTase inhibitory activity”. For the same compound, the “LC3 mRNA” value (LC3 mRNA) was “works in this assay; also recorded: upregulated”, the “LC3 mRNA” value (LC3 mRNA; listed as tipifarnib) was “increased” and the “inhibition of geranylgeranylation of lamin B peptide substrate by GGTase” value (GGTase [2]) was 40%. The “selectivity for FTase than GGTase” value (FTase) was “over 5,000 times”, the “number of LC3-positive puncta” value [3] was “distinct increase” and the “number of LC3-positive puncta” value ([3]; listed as tipifarnib) was “increased”. The “mRNA levels of a set of autophagy-related genes (incl. Atg1)” value [4] was “unaffected”, the “AUC(0-t)” value ([5]; Brain) was 44.50 ng·h/g and the “AUC(0-[…])” value ([5]; Brain) was 86.86 ng·h/g. For the same compound, the Cmax ([5]; mouse, Brain) was 6.84 ng/g, the Tmax ([5]; mouse, Brain) was 1 h and the half-life ([5]; mouse, Brain) was 8.1 h. The MRT ([5]; mouse, Brain) was 11.4 h, the Cmax ([5]; mouse, plasma, Blood) was 40.4 ng/mL and the Tmax ([5]; mouse, plasma, Blood) was 1 h. For the same compound, the half-life ([5]; mouse, plasma, Blood) was 1.31 h, the AUC(0-t) ([5]; mouse, plasma, Blood, read-out: AUC(0-t)) was 130 ng·h/mL and the AUC ([5]; mouse, plasma, Blood, read-out: AUC(0-[…])) was 131 ng·h/mL. It also gave an MRT ([5]; mouse, plasma, Blood) of 1.76 h.

Source: patent US20100331363A1, “TREATMENT OF MITOCHONDRIAL DISORDERS USING A FARNESYL TRANSFERASE INHIBITOR” (Link Medicine Corporation, priority 2008, published 2010)
